What was measured:
[1] = system: CETP; assay: Ex vivo CETP activity in plasma of hamsters (saline or Triton WR-1339 treated); conditions: hamster; for Inhibition of CETP activity, lower dose group, Triton WR-1339 group / Inhibition of CETP activity, lower dose group, saline group: oral gavage: Torcetrapib 5 mg/kg, Anacetrapib 1.5 mg/kg, Example 49 1.5 mg/kg, Example 8 0.75 mg/kg; for Inhibition of CETP activity, lower dose group, Triton WR-1339 group / Inhibition of CETP activity, higher dose group, Triton WR-1339 group: Triton WR-1339 100 mg/kg i.v.; for Inhibition of CETP activity, lower dose group, Triton WR-1339 group: not significant vs vehicle; for Inhibition of CETP activity, lower dose group, saline group / Inhibition of CETP activity, higher dose group, saline group: saline i.v.; for Inhibition of CETP activity, higher dose group, Triton WR-1339 group / Inhibition of CETP activity, higher dose group, saline group: oral gavage: Torcetrapib 10 mg/kg, Anacetrapib 3 mg/kg, Example 49 3 mg/kg, Example 8 1.5 mg/kg
Procedure: Nine- to ten-week-old, male golden Syrian hamsters were purchased from Japan SLC Inc. (Shizuoka, Japan). Animals underwent a more than 1-week acclimation period under the following conditions: 8:00/20:00 light/dark cycle, room temperature 23±2° C. […] During this time, animals received filtered (0.5 μm) water and a standard chow diet ad libitum.
Whole blood samples were collected using a heparin-washed syringe (Heparin sodium injection “Ajinomoto”; Ajinomoto, Tokyo, Japan) from the abdominal vein by venipuncture under isoflurane (Abbott Japan Co. Ltd.) inhalant anesthesia. After centrifugation at 15,000 rpm for 10 min at 4° C., heparinized plasma was prepared and stored at −80° C. until use.
CETP activity (RFU/min) was defined as the change in fluorescence intensity from 30 to 90 min.
The effect of an acute increase of plasma triglycerides in vivo (acute increase in triglyceride-rich particles) on the ability of Torcetrapib to alter plasma CETP activity, triglyceride and total cholesterol levels was investigated. Torcetrapib at doses of 3, 10 or 30 mg/kg or vehicle was administered once by gavage to hamsters fed a standard chow diet.
Compound or vehicle was administered once by gavage to hamsters fed a standard chow diet.

[2] = Plasma drug concentration in cynomolgus monkeys on chow or high carbohydrate diet; assay type: in vivo; conditions: Example 8 3 mg/kg, Anacetrapib 10 mg/kg, mean ± SD; for Plasma [drug] ng/mL, Day 7, Chow / Plasma [drug] ng/mL, Day 14, Chow: chow diet; for Plasma [drug] ng/mL, Day 7, Chow / Plasma [drug] ng/mL, Day 7, High CHO: day 7, daily oral; for Plasma [drug] ng/mL, Day 14, Chow / Plasma [drug] ng/mL, Day 14, High CHO: day 14, daily oral; for Plasma [drug] ng/mL, Day 7, High CHO / Plasma [drug] ng/mL, Day 14, High CHO: high carbohydrate diet
From the text: (§1) Normal male cynomolgus monkeys (n=17) weighing between 8-14 kg are placed on a high-carbohydrate, low-fat diet. The caloric composition of the diet is approximately 13.4% protein, 79.1% carbohydrate (sugar to starch ratio 50:50) and 7.5% fat. Calories are derived from standard monkey chow (LabDiet® 5047, PMI, Richmond, Ind. or LabDiet® 5000, Balanced Fiber diet, PMI, Richmond, Ind.) in quantities necessary to meet the protein and fat requirements, with the remaining calories provided by sugar-sweetened cereals, candies, and fruit (banana, orange, cantaloupe, honeydew, pineapple). The high-carbohydrate (CHO) diet will be fed for 18 days (4 days of pre-drug diet, 14 days of drug treatment), after which time they will return to their regular chow diets for a 14 day washout period followed by a second 14 day dosing phase of the study (normal diet).
(§2) Compound of Example 8 is dissolved at 30 mg/mL in 1M NaOH+ethanol:maisoel glyceride:propylene glycol:cremophor RH40 (10:36:9:45) and diluted 1:10 in ddH2O. […] The formulations are prepared each day (weekend doses are prepared on Friday) and stored stirring and protected from light at room temperature until dosing. Artificial flavor and color will be added to the dose when prepared.
(§3) The animals will ingest the compounds (1 mL/kg) voluntarily from a plastic syringe offered at their home cage at approximately 8 am daily. Animals will be fed 60 minutes after the dose is administered.
(§4) Blood collection will take place weekly during each dosing phase. Animals are fasted overnight (approximately 16 hours) prior to blood collection. Blood samples are collected from a saphenous vein via needle and syringe and put into 2 mL EDTA-coated tubes that are immediately placed on ice until centrifugation. Samples are centrifuged at 3,000 rpm for 20 minutes. The plasma is collected, divided into aliquots (listed below), and stored at −70° C. until analysis.

[3] = molecular target: T1, CETP (Macaca fascicularis, UniProt P47896); assay: Plasma CETP activity in cynomolgus monkeys on chow or high carbohydrate diet; assay type: in vivo; conditions: for CETP activity % Δ vs day 0, Day 7, Chow / CETP activity % Δ vs day 0, Day 14, Chow: chow diet; for CETP activity % Δ vs day 0, Day 7, Chow / CETP activity % Δ vs day 0, Day 7, High CHO: day 7, Example 8 3 mg/kg; for CETP activity % Δ vs day 0, Day 7, Chow / CETP activity % Δ vs day 0, Day 14, Chow / CETP activity % Δ vs day 0, Day 7, High CHO / CETP activity % Δ vs day 0, Day 14, High CHO: Anacetrapib 10 mg/kg, mean ± SD; for CETP activity % Δ vs day 0, Day 14, Chow / CETP activity % Δ vs day 0, Day 14, High CHO: day 14, Example 8 3 mg/kg; for CETP activity % Δ vs day 0, Day 7, High CHO / CETP activity % Δ vs day 0, Day 14, High CHO: high carbohydrate diet
T1 construct: from tissue; host or cells: EDTA plasma of cynomolgus monkeys dosed orally
T1 sequence (P47896 18-493): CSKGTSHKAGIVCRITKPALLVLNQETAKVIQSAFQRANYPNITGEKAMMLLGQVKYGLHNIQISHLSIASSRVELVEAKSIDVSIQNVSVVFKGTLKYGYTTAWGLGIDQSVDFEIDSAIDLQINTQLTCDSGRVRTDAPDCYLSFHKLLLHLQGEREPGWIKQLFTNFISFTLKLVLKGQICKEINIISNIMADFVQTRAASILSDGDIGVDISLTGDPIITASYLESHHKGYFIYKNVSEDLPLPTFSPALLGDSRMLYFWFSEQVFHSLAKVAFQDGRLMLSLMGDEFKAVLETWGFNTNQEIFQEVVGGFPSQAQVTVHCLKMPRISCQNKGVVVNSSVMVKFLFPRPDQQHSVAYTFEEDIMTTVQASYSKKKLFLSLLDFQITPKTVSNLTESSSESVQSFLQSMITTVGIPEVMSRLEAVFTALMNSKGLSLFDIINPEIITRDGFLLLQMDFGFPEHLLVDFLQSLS
From the text: as §1, §2, §3, §4

SMILES | Inhibition of CETP activity, lower dose group, Triton WR-1339 group [1] | Inhibition of CETP activity, lower dose group, saline group [1] | Inhibition of CETP activity, higher dose group, Triton WR-1339 group [1] | Inhibition of CETP activity, higher dose group, saline group [1] | Plasma [drug] ng/mL, Day 7, Chow [2] | Plasma [drug] ng/mL, Day 14, Chow [2] | Plasma [drug] ng/mL, Day 7, High CHO [2] | Plasma [drug] ng/mL, Day 14, High CHO [2] | CETP activity % Δ vs day 0, Day 7, Chow [3] | CETP activity % Δ vs day 0, Day 14, Chow [3] | CETP activity % Δ vs day 0, Day 7, High CHO [3] | CETP activity % Δ vs day 0, Day 14, High CHO [3] | CETP inhibitory activity in monkeys with diet-induced hypertriglyceridemia ([3]; TG>500 mg/dL)
COc1cc(F)c(C(C)C)cc1-c1ccc(C(F)(F)F)cc1CN1C(=O)O[C@H](c2cc(C(F)(F)F)cc(C(F)(F)F)c2)[C@@H]1C [Anacetrapib, reference compound] | 8% | 56% | 13% | 78% | 272 ± 74 ng/mL | 320 ± 93 ng/mL | 1836 ± 3694 ng/mL | 1437 ± 2935 ng/mL | −62 ± 15% | −59 ± 19% | −33 ± 23% | −24 ± 22% | 
CC[C@@H]1C[C@H](N(Cc2cc(C(F)(F)F)cc(C(F)(F)F)c2)c2ncc(-c3cnn(C)c3)cn2)C[C@H](CC)N1C(=O)O[C@H]1CC[C@H](C(=O)O)CC1 [Example 8] | 20% | 72% | 47% | 79% | 983 ± 408 ng/mL | 1015 ± 398 ng/mL | 1706 ± 949 ng/mL | 1709 ± 800 ng/mL | −78 ± 7% | −73 ± 9% | −72 ± 7% | −66 ± 10% | retains CEPT inhibitory activity
